These are literature values, as cited in patent US20030035836A1, “Oral controlled release pharmaceutical composition for once-a-day therapy for the treatment and prophylaxis of cardiac and circulatory diseases” (priority 2001, published 2003).

The conditions of the data set: oral administration; considerable first pass metabolism.

In the case of `COc1ccccc1OCCNCC(O)COc1cccc2[nH]c3ccccc3c12` (racemic) [Carvedilol, 1-(9H-carbazol-4-yloxy)-3-[[2-(2-methoxyphenoxy)ethyl]amino]-2-propanol], the absolute bioavailability is recorded as 25%.
